Reference: the supplement of paper PMC10307832

What was measured:
Assay in all cases: relative viability (nuclei count vs DMSO), 5 days (fraction); higher = more cells survive
201T = test system: 201T
How it was run: (§1)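 For relative viability, nuclei counts in treated wells were divided by those in vehicle wells. Lung cancer cell lines had been pin-tool dosed in 1536-well plates the day after seeding and cultured for 5 days, then fixed and stained in one step (final 0.05% Triton X-100, 1% formaldehyde, 1 ug/ml Hoechst) and imaged at 4×. Doses were one drug alone or a fixed anchor-drug dose plus five library-drug doses (not always all listed) in √10 steps, and values are duplicate-plate medians.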

BEN = test system: BEN
How it was run: as §1

HARA = test system: HARA
How it was run: as §1

HCC-366 = test system: HCC-366
How it was run: as §1

HCC-44 = test system: HCC-44
How it was run: as §1

HCC-78 = test system: HCC-78
How it was run: as §1

LU99A = test system: LU99A
How it was run: as §1

NCI-H1355 = test system: NCI-H1355
How it was run: as §1

NCI-H1437 = test system: NCI-H1437
How it was run: as §1

NCI-H1734 = test system: NCI-H1734
How it was run: as §1

NCI-H2009 = test system: NCI-H2009
How it was run: as §1

NCI-H2126 = test system: NCI-H2126
How it was run: as §1

NCI-H2347 = test system: NCI-H2347
How it was run: as §1

NCI-H2405 = test system: NCI-H2405
How it was run: as §1

NCI-H358 = test system: NCI-H358
How it was run: as §1

NCI-H441 = test system: NCI-H441
How it was run: as §1

NCI-H520 = test system: NCI-H520
How it was run: as §1

NCI-H727 = test system: NCI-H727
How it was run: as §1

NCI-H838 = test system: NCI-H838
How it was run: as §1

PC-3 [JPC-3] = test system: PC-3 [JPC-3]
How it was run: as §1

SW 1573 = test system: SW 1573
How it was run: as §1

UMC-11 = test system: UMC-11
How it was run: as §1

COCC1(CO)C(=O)C2CCN1CC2 (stereo not given) [PRIMA-1MET] + O=C(c1cc(Cc2n[nH]c(=O)c3ccccc23)ccc1F)N1CCN(C(=O)C2CC2)CC1 [Olaparib] (partner 8 µM)
relative viability (201T; first compound 0.2 µM): 0.947 | relative viability (201T; first compound 0.6325 µM): 0.829 | relative viability (201T; first compound 2 µM): 0.808 | relative viability (201T; first compound 6.325 µM): 0.908 | relative viability (201T; first compound 20 µM): 0.839 | relative viability (BEN; first compound 0.2 µM): 1.19 | relative viability (BEN; first compound 0.6325 µM): 1.11 | relative viability (BEN; first compound 6.325 µM): 1.12 | relative viability (BEN; first compound 20 µM): 1.07 | relative viability (HARA; first compound 0.2 µM): 0.69 | relative viability (HARA; first compound 0.6325 µM): 0.832 | relative viability (HARA; first compound 2 µM): 0.7 | relative viability (HARA; first compound 6.325 µM): 0.75 | relative viability (HARA; first compound 20 µM): 0.741 | relative viability (HCC-366; first compound 0.2 µM): 0.396 | relative viability (HCC-366; first compound 0.6325 µM): 0.346 | relative viability (HCC-366; first compound 2 µM): 0.328 | relative viability (HCC-366; first compound 6.325 µM): 0.34 | relative viability (HCC-366; first compound 20 µM): 0.0865 | relative viability (HCC-44; first compound 0.2 µM): 1.06 | relative viability (HCC-44; first compound 0.6325 µM): 0.969 | relative viability (HCC-44; first compound 2 µM): 1.12 | relative viability (HCC-44; first compound 6.325 µM): 0.969 | relative viability (HCC-44; first compound 20 µM): 0.945 | relative viability (HCC-78; first compound 0.2 µM): 1 | relative viability (HCC-78; first compound 0.6325 µM): 1.06 | relative viability (HCC-78; first compound 2 µM): 0.573 | relative viability (HCC-78; first compound 6.325 µM): 0.881 | relative viability (HCC-78; first compound 20 µM): 0.338 | relative viability (LU99A; first compound 0.2 µM): 0.312 | relative viability (LU99A; first compound 0.6325 µM): 0.24 | relative viability (LU99A; first compound 2 µM): 0.263 | relative viability (LU99A; first compound 6.325 µM): 0.22 | relative viability (LU99A; first compound 20 µM): 0.0441 | relative viability (NCI-H1355; first compound 0.2 µM): 0.768 | relative viability (NCI-H1355; first compound 0.6325 µM): 0.745 | relative viability (NCI-H1355; first compound 2 µM): 0.713 | relative viability (NCI-H1355; first compound 6.325 µM): 0.818 | relative viability (NCI-H1355; first compound 20 µM): 0.707 | relative viability (NCI-H1437; first compound 0.2 µM): 0.641 | relative viability (NCI-H1437; first compound 0.6325 µM): 0.556 | relative viability (NCI-H1437; first compound 2 µM): 0.627 | relative viability (NCI-H1437; first compound 6.325 µM): 0.65 | relative viability (NCI-H1437; first compound 20 µM): 0.614 | relative viability (NCI-H1734; first compound 0.2 µM): 0.711 | relative viability (NCI-H1734; first compound 0.6325 µM): 0.627 | relative viability (NCI-H1734; first compound 2 µM): 0.581 | relative viability (NCI-H1734; first compound 6.325 µM): 0.631 | relative viability (NCI-H1734; first compound 20 µM): 0.0357 | relative viability (NCI-H2009; first compound 0.2 µM): 0.657 | relative viability (NCI-H2009; first compound 0.6325 µM): 0.814 | relative viability (NCI-H2009; first compound 2 µM): 0.709 | relative viability (NCI-H2009; first compound 6.325 µM): 0.631 | relative viability (NCI-H2009; first compound 20 µM): 0.202 | relative viability (NCI-H2126; first compound 0.2 µM): 0.908 | relative viability (NCI-H2126; first compound 0.6325 µM): 0.861 | relative viability (NCI-H2126; first compound 2 µM): 0.854 | relative viability (NCI-H2126; first compound 6.325 µM): 0.972 | relative viability (NCI-H2126; first compound 20 µM): 0.831 | relative viability (NCI-H2347; first compound 0.2 µM): 0.641 | relative viability (NCI-H2347; first compound 0.6325 µM): 0.517 | relative viability (NCI-H2347; first compound 2 µM): 0.559 | relative viability (NCI-H2347; first compound 6.325 µM): 0.624 | relative viability (NCI-H2347; first compound 20 µM): 0.433 | relative viability (NCI-H2405; first compound 0.2 µM): 0.947 | relative viability (NCI-H2405; first compound 0.6325 µM): 0.986 | relative viability (NCI-H2405; first compound 6.325 µM): 0.88 | relative viability (NCI-H2405; first compound 20 µM): 0.167 | relative viability (NCI-H358; first compound 0.2 µM): 0.623 | relative viability (NCI-H358; first compound 0.6325 µM): 0.555 | relative viability (NCI-H358; first compound 2 µM): 0.601 | relative viability (NCI-H358; first compound 6.325 µM): 0.635 | relative viability (NCI-H358; first compound 20 µM): 0.553 | relative viability (NCI-H441; first compound 0.2 µM): 0.559 | relative viability (NCI-H441; first compound 0.6325 µM): 0.674 | relative viability (NCI-H441; first compound 2 µM): 0.615 | relative viability (NCI-H441; first compound 6.325 µM): 0.505 | relative viability (NCI-H441; first compound 20 µM): 0.407 | relative viability (NCI-H520; first compound 0.2 µM): 0.371 | relative viability (NCI-H520; first compound 2 µM): 0.38 | relative viability (NCI-H520; first compound 6.325 µM): 0.318 | relative viability (NCI-H520; first compound 20 µM): 0.144 | relative viability (NCI-H727; first compound 0.2 µM): 0.6 | relative viability (NCI-H727; first compound 0.6325 µM): 0.676 | relative viability (NCI-H727; first compound 6.325 µM): 0.527 | relative viability (NCI-H727; first compound 20 µM): 0.47 | relative viability (NCI-H838; first compound 0.2 µM): 0.788 | relative viability (NCI-H838; first compound 0.6325 µM): 0.76 | relative viability (NCI-H838; first compound 2 µM): 0.809 | relative viability (NCI-H838; first compound 6.325 µM): 0.789 | relative viability (NCI-H838; first compound 20 µM): 0.579 | relative viability (PC-3 [JPC-3]; first compound 0.2 µM): 1.4 | relative viability (PC-3 [JPC-3]; first compound 0.6325 µM): 1.26 | relative viability (PC-3 [JPC-3]; first compound 2 µM): 1.11 | relative viability (PC-3 [JPC-3]; first compound 6.325 µM): 1.14 | relative viability (PC-3 [JPC-3]; first compound 20 µM): 0.981 | relative viability (SW 1573; first compound 0.2 µM): 0.672 | relative viability (SW 1573; first compound 2 µM): 0.388 | relative viability (SW 1573; first compound 6.325 µM): 0.0574 | relative viability (SW 1573; first compound 20 µM): 0.0284 | relative viability (UMC-11; first compound 0.2 µM): 0.526 | relative viability (UMC-11; first compound 0.6325 µM): 0.312 | relative viability (UMC-11; first compound 2 µM): 0.376 | relative viability (UMC-11; first compound 6.325 µM): 0.417 | relative viability (UMC-11; first compound 20 µM): 0.406
